ChEMBL document CHEMBL4041503, “A Hexacyclic, Iboga-Derived Monoterpenoid Indole with a Contracted Tetrahydroazepine C-Ring and Incorporation of an Isoxazolidine Moiety, a Seco-Corynanthean, an Aspidosperma-Aspidosperma Bisindole with Anticancer Properties, and the Absolute Configuration of the Pyridopyrimidine Indole Alkaloid, …” (J Nat Prod, 2016)

Experiments:
Type in all cases: functional, cell-based
PC-3 = test: Cytotoxicity against human PC3 cells assessed as reduction in cell viability after 72 hrs by MTT assay; settings: PC-3, 72 h
HCT-116 = test: Cytotoxicity against human HCT116 cells assessed as reduction in cell viability after 72 hrs by MTT assay; settings: HCT-116, 72 h
HT-29 = test: Cytotoxicity against human HT-29 cells assessed as reduction in cell viability after 72 hrs by MTT assay; settings: HT-29, 72 h
LNCaP = test: Cytotoxicity against human LNCAP cells assessed as reduction in cell viability after 72 hrs by MTT assay
MCF7 = test: Cytotoxicity against human MCF7 cells assessed as reduction in cell viability after 72 hrs by MTT assay; settings: MCF7, 72 h
KB/VJ300 = test: Cytotoxicity against human KB/VJ300 cells assessed as reduction in cell viability after 72 hrs by MTT assay; settings: KB/VJ300, 72 h
[1] = Cytotoxicity against human KB/S cells assessed as reduction in cell viability after 72 hrs by MTT assay
MDA-MB-231 = test: Cytotoxicity against human MDA-MB-231 cells assessed as reduction in cell viability after 72 hrs by MTT assay; settings: MDA-MB-231, 72 h
A549 = test: Cytotoxicity against human A549 cells assessed as reduction in cell viability after 72 hrs by MTT assay; settings: A549, 72 h

| SMILES | IC50 (PC-3) | IC50 (HCT-116) | IC50 (HT-29) | IC50 (LNCaP) | IC50 (MCF7) | IC50 (KB/VJ300) | IC50 [1] | IC50 (MDA-MB-231) | IC50 (A549) |
| --- | --- | --- | --- | --- | --- | --- | --- | --- | --- |
| CC[C@]12C=CCN3CC[C@]4(C(=C(C(=O)OC)C1)Nc1cc5c(cc14)[C@@H]1[C@H](O5)[C@@H](O)[C@@]4(CC)CC(C(=O)OC)=C5Nc6c(cc(O)c(OC)c6OC)[C@@]56CCN1[C@@H]46)[C@@H]32 | 200 nM | 800 nM | 1100 nM | 900 nM | 600 nM | > 10000 nM | 1500 nM | 900 nM | 10000 nM |
| CC[C@@]12CC(C(=O)OC)=C3Nc4c(cc(O)c(OC)c4OC)[C@@]34CCN([C@@H]3c5cc6c(cc5O[C@@H]3[C@H]1O)NC1=C(C(=O)OC)C[C@]35CCO[C@H]3CCN3CC[C@@]16[C@@H]35)[C@@H]24 | 1100 nM | 400 nM | 300 nM | 300 nM | 5900 nM | 7400 nM | 500 nM | 800 nM | > 10000 nM |
| CC[C@]1(O)C[C@H]2CN(CCc3c([nH]c4ccccc34)[C@@](C(=O)OC)(c3cc4c(cc3OC)N(C=O)[C@H]3[C@@](O)(C(=O)OC)[C@H](OC(C)=O)[C@]5(CC)C=CCN6CC[C@]43[C@@H]65)C2)C1 [VINCRISTINE] |  |  |  |  |  | 5900 nM | 2 nM |  |  |
